Data as given in the NIST ThermoML archive (doi:10.1021/acs.jced.8b00212).

Settings: Fluid (supercritical or subcritical phases), Brillouin light scattering

CCCCCCC [heptane]
Settings	speed of sound [m/s]
513.4 K, 8000 kPa	451.65
513.58 K, 6000 kPa	394.15
513.59 K, 3000 kPa	293.56
513.65 K, 4000 kPa	333.84
513.92 K, 2500 kPa	266.66
515.23 K, 5000 kPa	363.89
515.3 K, 10000 kPa	481.16
521.41 K, 5000 kPa	337.01
523.19 K, 10000 kPa	459.31
523.83 K, 3000 kPa	242.56
524.25 K, 4000 kPa	291.43
524.62 K, 6000 kPa	357.73
524.62 K, 8000 kPa	417.84
525.23 K, 2500 kPa	196.31
528.41 K, 3000 kPa	218.56
528.9 K, 4000 kPa	269.01
528.93 K, 2500 kPa	167.01
528.95 K, 8000 kPa	403.55
529.1 K, 6000 kPa	344.17
532.76 K, 3000 kPa	193.81
533.4 K, 10000 kPa	437.12
533.55 K, 4000 kPa	252.16
533.57 K, 8000 kPa	391.25
533.77 K, 6000 kPa	331.99
534.12 K, 2500 kPa	121.38
534.45 K, 5000 kPa	293.97
537.58 K, 4000 kPa	231.06
538.13 K, 2500 kPa	101.28
538.36 K, 3000 kPa	152.7
538.84 K, 8000 kPa	376.34
539.09 K, 6000 kPa	316.72
541.47 K, 4000 kPa	208.26
542.55 K, 8000 kPa	364.39
543.16 K, 10000 kPa	413.25
543.5 K, 5000 kPa	262.34
543.6 K, 6000 kPa	300.59
544.09 K, 2500 kPa	100.71
544.95 K, 3000 kPa	115.6
547.02 K, 2500 kPa	107.6
548.66 K, 8000 kPa	346.4
548.98 K, 6000 kPa	283.97
549.04 K, 3000 kPa	105.27
549.16 K, 4000 kPa	178.39
552.59 K, 2500 kPa	118.66
553.05 K, 6000 kPa	270.32
553.19 K, 8000 kPa	335.76
553.2 K, 10000 kPa	388.87
553.42 K, 5000 kPa	225.17
553.43 K, 4000 kPa	160.12
553.93 K, 3000 kPa	110.64
557.81 K, 8000 kPa	325.48
557.86 K, 6000 kPa	255.8
559.74 K, 3000 kPa	116.03
559.91 K, 2500 kPa	129.19
560.41 K, 4000 kPa	132.63
563.03 K, 10000 kPa	363.89
563.09 K, 3000 kPa	119.84
563.58 K, 8000 kPa	312.82
563.84 K, 6000 kPa	236.54
563.94 K, 4000 kPa	124.51
564.02 K, 2500 kPa	135.46
565.65 K, 5000 kPa	187.87
572.57 K, 2500 kPa	144.47
573.39 K, 10000 kPa	345.21
574.33 K, 3000 kPa	134.46
574.41 K, 8000 kPa	287.41
574.85 K, 6000 kPa	211.93
574.87 K, 5000 kPa	160.49
575.28 K, 4000 kPa	113.58
577.04 K, 5000 kPa	154.18
579.18 K, 10000 kPa	331.94
582.31 K, 5000 kPa	142.67
582.39 K, 3000 kPa	142.99
582.86 K, 10000 kPa	325.02
583.1 K, 8000 kPa	270.69
583.18 K, 6000 kPa	191.45
584.19 K, 2500 kPa	156.26
584.6 K, 4000 kPa	122.55
587.85 K, 10000 kPa	315.79
588.17 K, 5000 kPa	139.88
590.48 K, 2500 kPa	161.58
591.62 K, 4000 kPa	127.84
591.77 K, 3000 kPa	152.87
592.28 K, 5000 kPa	136.41
592.57 K, 6000 kPa	176.14
592.71 K, 10000 kPa	307.49
593.19 K, 8000 kPa	249.19
597.48 K, 5000 kPa	135.43
601.6 K, 2500 kPa	170.4
602.3 K, 5000 kPa	135.26
602.84 K, 3000 kPa	161.38
603.51 K, 10000 kPa	291.2
603.68 K, 4000 kPa	143.88
604.1 K, 6000 kPa	161.83
604.67 K, 8000 kPa	226
607.65 K, 5000 kPa	136.72
612.08 K, 4000 kPa	149.82
612.37 K, 3000 kPa	167.57
612.58 K, 2500 kPa	179.23
613.73 K, 6000 kPa	158.49
613.93 K, 8000 kPa	218.01
614.03 K, 10000 kPa	272.94
615.11 K, 5000 kPa	142.58
620.2 K, 8000 kPa	211.6
620.87 K, 2500 kPa	183.77
621.22 K, 4000 kPa	157.32
622.48 K, 6000 kPa	158.77
623.13 K, 10000 kPa	260.67
623.25 K, 5000 kPa	150.58
623.42 K, 3000 kPa	174.58
631.85 K, 4000 kPa	163.15
632.04 K, 3000 kPa	179.96
632.18 K, 2500 kPa	189.44
632.29 K, 5000 kPa	156.55
632.41 K, 6000 kPa	159.42
632.86 K, 8000 kPa	201.03
640.72 K, 2500 kPa	192.85
641.53 K, 3000 kPa	186.21
641.95 K, 4000 kPa	173.32
642.59 K, 8000 kPa	195.65
643.04 K, 6000 kPa	164.74
643.51 K, 5000 kPa	165.41
650.07 K, 2500 kPa	195.77
650.9 K, 3000 kPa	189.41
